Values after ≈ are worked out from the molar mass of the structure shown.

A short description of the data set: Water solubility of Compound A. In kind it is physicochemical. How it is done:
Agents for sedation and anaesthesia are frequently administered by intravenous injection, a form of administration for which the agents need to be in a water-miscible form. Compound A, however, is an oleaginous compound with a water solubility of about 2 mg/ml. Such a compound is considered “slightly soluble” in the solubility definitions in General Notices 5.30 of the United States Pharmacopeia, USP33-NF28, published by the United States Pharmacopeial Convention Inc., Rockville, Md. In the case of Compound A, this solubility is not optimal for a therapeutically useful dose to be prepared simply by dissolution in water. The preparation of slightly soluble medicinal compounds for intravenous administration has been the subject of considerable investigation, but remains a significant challenge in the development of new therapeutic agents. Several drug delivery systems have been investigated for such compounds. In the present application, emulsions, in which droplets of oil, in which the drug is itself dissolved, are dispersed in an aqueous medium with the aid of an emulsifier and other suitable excipients and processing. A similar method is used for the commercial formulation of propofol, (2,6-diisopropyl-phenol), which is commercially available as Diprivan® Injectable Emulsion at concentrations of 1% and 2%. Oil-in-water emulsions comprising propofol are described in WO 96/29064.

A word on the solubility: it is the concentration that dissolves in the medium under given conditions. For `CCCOC(=O)Cc1ccc(OCC(=O)N(CC)CC)c(OCC)c1` [Compound A, [3-ethoxy-4-[(N,N-diethylcarbamido)methoxy]phenyl]acetic acid n-propyl ester], the solubility was roughly 2000 µg/mL (≈ 5.69 mM).

For the origin of these results see patent publication US20130236501A1, “Injectable Emulsion of Sedative Hypnotic Agent” (ASTRAZENECA AB, priority 2010, published 2013).
